Literature values as cited in patent US20100273275A1, “Methods of determining levels of steroid fractions utilizing SHBG calculations” (priority 2005, published 2010).

What was measured:
SHBG = molecular target: T1, SHBG (Homo sapiens, UniProt P04278); conditions: for KPS (association constant for SHBG-binding to a steroid ligand): constants used for calculations, Dunn et al. (1981), Moll et al. (1981), Rosner (1991)
T1 sequence (P04278 30-402): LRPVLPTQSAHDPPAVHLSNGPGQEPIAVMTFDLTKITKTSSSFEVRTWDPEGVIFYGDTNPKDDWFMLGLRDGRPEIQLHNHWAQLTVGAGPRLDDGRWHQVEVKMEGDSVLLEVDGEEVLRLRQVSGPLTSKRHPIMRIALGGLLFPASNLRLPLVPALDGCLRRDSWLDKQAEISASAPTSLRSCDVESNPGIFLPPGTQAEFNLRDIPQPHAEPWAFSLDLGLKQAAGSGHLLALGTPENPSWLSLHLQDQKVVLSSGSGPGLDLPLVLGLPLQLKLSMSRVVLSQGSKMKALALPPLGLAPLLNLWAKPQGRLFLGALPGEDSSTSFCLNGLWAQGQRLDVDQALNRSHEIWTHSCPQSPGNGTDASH

albumin = albumin (Homo sapiens, UniProt P02768); conditions: for KAS (association constant for albumin-binding to a steroid ligand): constants used for calculations, Dunn et al. (1981), Moll et al. (1981), Rosner (1991)
[1] = constant used for free and bioavailable testosterone calculation

albumin, sequence (P02768 25-609): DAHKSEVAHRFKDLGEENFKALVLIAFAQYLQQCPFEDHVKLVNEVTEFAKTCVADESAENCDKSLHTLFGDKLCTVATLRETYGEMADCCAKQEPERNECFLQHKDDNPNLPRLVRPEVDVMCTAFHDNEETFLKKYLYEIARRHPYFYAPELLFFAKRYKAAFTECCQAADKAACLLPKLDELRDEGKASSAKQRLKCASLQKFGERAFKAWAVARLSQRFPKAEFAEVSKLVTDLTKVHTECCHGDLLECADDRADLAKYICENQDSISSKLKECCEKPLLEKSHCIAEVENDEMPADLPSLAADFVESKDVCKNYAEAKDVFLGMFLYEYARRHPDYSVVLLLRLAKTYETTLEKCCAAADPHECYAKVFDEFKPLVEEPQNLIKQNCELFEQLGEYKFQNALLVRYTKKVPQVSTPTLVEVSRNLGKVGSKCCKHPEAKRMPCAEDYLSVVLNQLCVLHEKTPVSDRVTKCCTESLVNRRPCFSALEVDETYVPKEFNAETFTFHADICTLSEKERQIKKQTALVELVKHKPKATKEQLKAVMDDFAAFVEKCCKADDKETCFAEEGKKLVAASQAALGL

| SMILES | KPS (association constant for SHBG-binding to a steroid ligand) (SHBG) | KAS (association constant for albumin-binding to a steroid ligand) (albumin) | KS (association constant, SHBG) (SHBG; [1]) [L/mol] | KA (association constant, albumin) (albumin; [1]) [L/mol] |
| --- | --- | --- | --- | --- |
| C[C@]12CCC(=O)C=C1CC[C@@H]1[C@@H]2CC[C@]2(C)C(=O)CC[C@@H]12 [Androstenedione] | 0.029 [M^−1] × 10^9 | 20000 [M^−1] |  |  |
| C[C@]12CC[C@H](O)CC1=CC[C@@H]1[C@@H]2CC[C@]2(C)C(=O)CC[C@@H]12 [Dehydroepiandrosterone] |  | 40000 [M^−1] |  |  |
| C[C@]12CC[C@H](O)CC1=CC[C@@H]1[C@@H]2CC[C@]2(C)C(=O)CC[C@@H]12 [Dihydroandrosterone] |  | 180000 [M^−1] |  |  |
| C[C@]12CCC(=O)C[C@@H]1CC[C@@H]1[C@@H]2CC[C@]2(C)[C@@H](O)CC[C@@H]12 [Dihydrotestosterone] | 2.0 [M^−1] × 10^9 | 79800 [M^−1] |  |  |
| C[C@]12CC[C@H]3[C@@H](CCC4=CC(=O)CC[C@@]43C)[C@@H]1CC[C@@H]2O [Testosterone] |  | 36000 [M^−1] | 1e+09 | 36000 |
